Key:
[1] = molar heat capacity at constant pressure; conditions: 101.33 kPa, Crystal
[2] = Crystal; visual observation

N[C@@H](Cc1ccc(O)c(O)c1)C(=O)O [L-3,4-dihydroxyphenylalanine]
[1]
Conditions | molar heat capacity at constant pressure [J/K/mol]
78.47 K | 71.34
79.83 K | 72.35
81.49 K | 73.75
83 K | 75.18
84.82 K | 76.68
86.63 K | 78.19
88.44 K | 79.6
89.94 K | 80.73
91.35 K | 82.27
93.06 K | 83.62
94.81 K | 84.79
97.14 K | 86.2
98.89 K | 87.89
100.72 K | 89.28
102.64 K | 90.78
104.71 K | 92.24
106.74 K | 93.97
108.74 K | 95.89
110.71 K | 97.8
112.66 K | 99.36
114.58 K | 101.07
116.47 K | 103
118.5 K | 104.72
120.65 K | 106.43
122.77 K | 108.44
124.86 K | 110.39
126.96 K | 112.16
129.01 K | 113.95
131.02 K | 115.5
133.03 K | 117.12
135.03 K | 118.6
136.99 K | 120.14
138.96 K | 121.84
140.87 K | 123.73
142.78 K | 125.45
144.7 K | 127.02
146.71 K | 128.82
148.67 K | 130.53
150.67 K | 132.25
152.73 K | 133.85
154.83 K | 135.87
156.88 K | 137.96
158.94 K | 139.53
160.94 K | 141.56
162.95 K | 143.5
164.96 K | 144.99
166.92 K | 146.4
168.93 K | 148.17
170.89 K | 150.21
172.8 K | 151.86
174.76 K | 153.4
176.68 K | 155.02
178.59 K | 156.36
180.49 K | 157.89
182.37 K | 159.54
184.4 K | 161.1
186.39 K | 162.67
188.35 K | 164.31
190.45 K | 165.92
192.51 K | 167.41
194.57 K | 169.47
196.6 K | 171.19
198.74 K | 173.02
200.73 K | 174.55
202.72 K | 176.35
204.75 K | 178.18
206.74 K | 179.9
208.73 K | 181.7
210.72 K | 183.49
212.57 K | 185.1
214.57 K | 186.74
216.49 K | 188.38
218.41 K | 190.07
220.37 K | 191.82
222.25 K | 193.7
224.06 K | 195.34
226.73 K | 197.52
229.58 K | 199.77
232.56 K | 202.63
235.59 K | 205.29
238.77 K | 207.95
241.76 K | 210.58
244.74 K | 212.99
247.73 K | 215.37
250.77 K | 218.1
253.75 K | 220.62
256.74 K | 223
259.76 K | 225.81
262.77 K | 228.18
265.75 K | 230.91
268.6 K | 233.5
271.68 K | 236.23
274.76 K | 239.03
277.82 K | 242.01
280.88 K | 244.64
283.92 K | 247.23
286.95 K | 249.5
289.94 K | 252.13
292.92 K | 255.42
295.76 K | 258.06
298.79 K | 261
301.77 K | 263.53
304.66 K | 266.35
307.79 K | 269.29
310.97 K | 272.35
313.95 K | 275.23
317.08 K | 278.06
320.26 K | 281.06
323.2 K | 284.12
325.79 K | 286.4
328.38 K | 288.56
331.07 K | 291.45
333.76 K | 293.85
336.37 K | 296.31
338.98 K | 299.04
341.74 K | 301.82
344.65 K | 304.77
347.41 K | 307.5
350.17 K | 309.96
352.94 K | 312.58
355.85 K | 315.2
358.46 K | 317.71
361.22 K | 320.33
363.98 K | 323.17
366.59 K | 325.79
369.35 K | 328.08
372.11 K | 330.75
374.87 K | 333.1
377.49 K | 335.94
380.09 K | 338.83
382.85 K | 341.72
385.61 K | 344.62
388.83 K | 347.29
391.44 K | 350.03
394.35 K | 352.91
396.81 K | 355.28
399.26 K | 357.83

Conditions | Normal melting temperature [°C]
[2] | 277.00
